Results on ten compounds are retold here after patent US20260001893A1, “SMALL MOLECULE MODULATORS OF STAT6” (Gilead Sciences, Inc., priority 2024, published 2026).

The assay concerns Eotaxin-3 (CCL26) release in human whole blood stimulated with IL-4. In words: Human whole blood eotaxin-3 assay (IL-4 stimulated eotaxin-3 release). Format: cell-based. The settings on record: Homo sapiens, 48 h, human whole blood stimulated with recombinant human IL-4, 48 h, geometric mean; for pEC50: inhibition of eotaxin-3 release, given for test compounds with >80% Emax; for Emax: given for test compounds with <80% Emax. The method in brief: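 Lithium-heparin human whole blood was preincubated with compound (4-fold serial dilution, 0.5% DMSO final) for 2 h at 37° C, then stimulated with recombinant human IL-4 at […] final for 48 h. Eotaxin-3 (CCL26) in the supernatant was measured by MSD immunoassay.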

pEC50: −log10 of the molar value.

`[2H]C([2H])([2H])N(C(=O)c1cc(F)c(C2CCN(Cc3cc4c(-n5ccc6c(c5=O)CCN6)ccnc4n3C)CC2)c(F)c1)C([2H])([2H])[2H]` [Example 1m117, 3,5-difluoro-N,N-bis(methyl-d3)-4-(1-((1-methyl-4-(4-oxo-1,2,3,4-tetrahydro-5H-pyrrolo[3,2-c]pyridin-5-yl)-1H-pyrrolo[2,3-b]pyridin-2-yl)methyl)piperidin-4-yl)benzamide]: the negative-log EC50 (pEC50) (as a rule, −log10 of the EC50, conventionally taken in molar units) is 7.61.

As for `CNc1ccn(-c2ccnc3c2cc(CN2CC=C(c4ncc(C(=O)N(C)C)cc4C(F)(F)F)CC2)n3C)c(=O)c1` [Example 1m69, N,N-Dimethyl-6-[1-[[1-methyl-4-[4-(methylamino)-2-oxo-1-pyridyl]pyrrolo[2,3-b]pyridin-2-yl]methyl]-3,6-dihydro-2H-pyridin-4-yl]-5-(trifluoromethyl)pyridine-3-carboxamide], the negative-log EC50 (pEC50) was 6.50.

For `Cc1cc(C(=O)N(C)C)cc(F)c1C1CCN([C@H](C)c2cc3c(-n4ccc5c(c4=O)CCN5)ccnc3n2C)CC1` (single isomer, unassigned) [Example 1m120], the maximal response (Emax) (commonly the greatest response seen or fitted, relative to the assay's reference) lay within 40 to 50%.

As to `CN(C)C(=O)c1ccc(C2=CCN(Cc3cc4c(-n5ccc6c(c5=O)CCN6)ccnc4n3C)CC2)c(OC(F)(F)F)c1` [Example 1m146, NN-dimethyl-4-(1-((1-methyl-4-(4-oxo-1,2,3,4-tetrahydro-5H-pyrrolo[3,2-c]pyridin-5-yl)-1H-pyrrolo[2,3-b]pyridin-2-yl)methyl)-1,2,3,6-tetrahydropyridin-4-yl)-3-(trifluoromethoxy)benzamide], the pEC50 is 6.81.

As to `[2H]C([2H])([2H])N(C(=O)c1ccc(C2CCN([C@@H](C)c3cc4c(-n5c(F)cc(NC)cc5=O)ccnc4n3C)CC2)cc1)C([2H])([2H])[2H]` [Example 1m97, 4-(1-((1S)-1-(4-(6-fluoro-4-(methylamino)-2-oxopyridin-1 (2H)-yl)-1-methyl-1H-pyrrolo[2,3-b]pyridin-2-yl)ethyl)piperidin-4-yl)-N,N-bis(methyl-d3)benzamide], the Emax was in the range of 10 to 20%.

As for `C[C@@H](c1cc2c(-n3ccc4c(c3=O)CCN4)ccnc2n1C)N1CC=C(c2c(F)cc(C(=O)N(C)C)cc2F)CC1` [Example 1m122, (S)-3,5-difluoro-N,N-dimethyl-4-(1-(1-(1-methyl-4-(4-oxo-1,2,3,4-tetrahydro-5H-pyrrolo[3,2-c]pyridin-5-yl)-1H-pyrrolo[2,3-b]pyridin-2-yl)ethyl)-1,2,3,6-tetrahydropyridin-4-yl)benzamide], the negative logarithm of the EC50 (pEC50) was 7.94.

`CN(C)C(=O)c1ccc(C2=CCN(Cc3cc4c(-n5ccc6c(c5=O)CCN6)ccnc4n3C)CC2)cc1F` [Example 1m83, 2-fluoro-N,N-dimethyl-4-(1-((1-methyl-4-(4-oxo-1,2,3,4-tetrahydro-5H-pyrrolo[3,2-c]pyridin-5-yl)-1H-pyrrolo[2,3-b]pyridin-2-yl)methyl)-1,2,3,6-tetrahydropyridin-4-yl)benzamide]: the maximal effect (Emax) was 30 to 40%.

Regarding `CNc1ccn(-c2ccnc3c2cc([C@@H](C)N2CC=C(c4c(C)cc(C(=O)N(C)C)cc4F)CC2)n3C)c(=O)c1` (single isomer, unassigned) [Example 1m105], the negative-log EC50 (pEC50) is 7.09.

Take `CNc1ccn(-c2ccnc3c2cc(CN2CCC(c4ccc(C(=O)N(C)C)cc4Cl)CC2)n3C)c(=O)c1` [Example 1d37, 3-Chloro-N,N-dimethyl-4-[1-[[1-methyl-4-[4-(methylamino)-2-oxo-1-pyridyl]pyrrolo[2,3-b]pyridin-2-yl]methyl]-4-piperidyl]benzamide]: the negative logarithm of the EC50 (pEC50) is 6.83.

Take `CN(C)C(=O)c1ccc(C2CCN(Cc3cc4c(-n5ccc(N)c(C(=O)CCCO)c5=O)ccnc4n3C)CC2)cc1` [Example 1d44, 4-[1-[[4-[4-Amino-3-(4-hydroxybutanoyl)-2-oxo-1-pyridyl]-1-methyl-pyrrolo[2,3-b]pyridin-2-yl]methyl]-4-piperidyl]-N,N-dimethyl-benzamide]: the pEC50 was 6.51.
